Converted amounts (≈) assume the structure as drawn.
Key:
[1] = test system: Vesicular stomatitis virus; assay: Antiviral activity against VSV infected in BHK cells assessed as inhibition of plaque formation; assay type: functional, organism-based
Human alphaherpesvirus 1 [2] = assay: Antiviral activity against HSV1 infected in monkey CV-1 cells assessed as inhibition of plaque formation; assay type: functional, organism-based; conditions: Human alphaherpesvirus 1, CV-1
Human alphaherpesvirus 1 [3] = assay: Antiviral activity against HSV1 infected in human primary amnion cells assessed as inhibition of virus-induced pathogenic effect; assay type: functional
[4] = Therapeutic index, ratio of MTC for human primary amnion cells to lowest drug level causing inhibition of HSV1; conditions: read-out: TI
[5] = Cytotoxicity against human primary amnion cells assessed as morphological changes by microscopic examination; assay type: functional
[6] = test system: Human immunodeficiency virus 1; assay: Antiviral activity against HIV1 infected in human MT4 cells; assay type: functional, organism-based; conditions: Human immunodeficiency virus 1, MT4
MT4 = assay: Cytotoxicity against human MT4 cells; assay type: functional; conditions: read-out: CD50 (the source's name)
[7] = Inhibition of human DNA polymerase alpha
[8] = test system: Human immunodeficiency virus; assay: Antiviral activity against cross-resistant HIV mutant; assay type: functional; conditions: Human immunodeficiency virus 1; read-out: ED50 (the source's name)
[9] = test system: Human immunodeficiency virus; assay: Antiviral activity against HIV assessed as reduction of viral protein production at 0.27 uM; assay type: functional; set-up: scale not given: the % may be the effect or the level left
[10] = test system: Human immunodeficiency virus; assay: Antiviral activity against HIV assessed as reduction of viral protein production at 0.52 uM; assay type: functional; set-up: scale not given: the % may be the effect or the level left
[11] = Therapeutic index, ratio of inhibition of human H9 cells to EC50 for HIV1; assay type: cell-based; conditions: read-out: TI
[12] = test system: Human immunodeficiency virus 1; assay: Antiviral activity against HIV1 infected in human H9 cells assessed inhibition of viral replication; assay type: functional, organism-based; conditions: Human immunodeficiency virus 1, H9
[13] = test system: Human immunodeficiency virus; assay: Antiviral activity against HIV; assay type: functional, organism-based; conditions: Human immunodeficiency virus 1
Sindbis virus [14] = assay: Antiviral activity against Sindbis virus in mouse 3T3-L1 cells at 241 nM; assay type: functional
Murid betaherpesvirus 1 [15] = assay: Antiviral activity against Murine cytomegalovirus in mouse 3T3-L1 cells at 241 nM; assay type: functional; conditions: Murid betaherpesvirus 1, 3T3-L1
[16] = Cytotoxicity against rabbit RL33 cells; assay type: cell-based, Oryctolagus cuniculus
[17] = test system: Vesicular stomatitis virus; assay: Antiviral activity against VSV infected in rabbit RL-33 cells; assay type: functional
Sindbis virus [18] = assay: Antiviral activity against Sindbis virus in mouse 3T3-L1 cells at 250 nM; assay type: functional
Murid betaherpesvirus 1 [19] = assay: Antiviral activity against Murine cytomegalovirus in mouse 3T3-L1 cells at 250 nM; assay type: functional; conditions: Murid betaherpesvirus 1, 3T3-L1
Murid betaherpesvirus 1 [20] = assay: Antiviral activity against Murine cytomegalovirus in mouse 3T3-L1 cells at 263 nM; assay type: functional; conditions: Murid betaherpesvirus 1, 3T3-L1
Sindbis virus [21] = assay: Antiviral activity against Sindbis virus in mouse 3T3-L1 cells at 273 nM; assay type: functional

## COC(=O)[C@@H]1C(CO)=Cc2cc3c(cc2[C@H]1c1cc(OC)c(OC)c(OC)c1)OCO3
[1]
  IC50: 0.46 µM
Human alphaherpesvirus 1 [2]
  IC50: 0.46 µM

## COc1cc([C@@H]2c3cc4c(cc3[C@@H](O[C@@H]3O[C@@H]5CO[C@@H](C)O[C@H]5[C@H](O)[C@H]3O)[C@H]3COC(=O)[C@H]23)OCO4)cc(OC)c1O [ETOPOSIDE]
Human alphaherpesvirus 1 [3]
  Activity: 85 µM
[4]
  selectivity ratio: 1.2
[5]
  Activity: 100 µM

## COc1ccc([C@H]2c3c(cc4c(c3OC)OCO4)C[C@H]3CSC[C@@H]32)cc1OC
[6]
  EC50: 3.3 µM
MT4
  CC50: > 840 µM

## COc1cc2cc3c(c(-c4ccc5c(c4)OCO5)c2cc1OC)COC3=O [RETROJUSTICIDIN B]
[7]
  IC50: 5.5 µM

## COCc1cc2cc(OC)c(OC)cc2c(-c2ccc3c(c2)OCO3)c1C=O [PHYLLAMYRICIN B]
[7]
  IC50: 3.5 µM

## COc1cc([C@H]2c3c(cc(OC)c(OC)c3OC)C[C@@H](C)[C@@H]2C)cc(OC)c1OC
[6]
  EC50: 3.2 µM
MT4
  CC50: 34 µM

## COc1c(O)c(Br)c2c(c1OC)-c1c(c(Br)c(O)c(OC)c1OC)C[C@H](C)[C@H](C)C2
[8]
  EC50: 0.1 µM

## COc1cc([C@@H]2c3cc4c(cc3C[C@H]3CC(=O)C[C@@H]32)OCO4)cc(OC)c1OC [DEOXYPODOPHYLLOTOXIN CYCLOPENTANONE]
Human alphaherpesvirus 1 [3]
  Activity: 49 µM
[4]
  selectivity ratio: 2.5
[5]
  Activity: 122 µM

## COc1cc([C@@H]2c3cc4c(c(OC)c3C[C@H]3COC(=O)[C@@H]32)OCO4)cc(OC)c1OC
[1]
  IC50: 0.023 µM
Human alphaherpesvirus 1 [2]
  IC50: 0.023 µM

## COc1cc(C[C@H]2C(=O)OC[C@@H]2Cc2ccc(OC)c(OC)c2)ccc1O [ARCTIGENIN]
[9]
  Activity: 60%
[10]
  Activity: 60%
[11]
  selectivity ratio: 9
[12]
  EC50: 0.42 µM

## COc1cc2c(c(OC)c1OC)-c1c(cc3c(c1OC)OCO3)C[C@@H](C)[C@@H](C)C2 [KADSURANIN]
[13]
  IC50: 2 µM

## COc1cc([C@@H]2c3cc4c(cc3[C@@H](OC)[C@H]3COC(=O)[C@H]23)OCO4)cc(OC)c1OC
[1]
  IC50: 0.9 µM
Human alphaherpesvirus 1 [2]
  IC50: 0.9 µM

## COc1ccc(C[C@H]2COC(=O)[C@@H]2Cc2ccc(O)c(O)c2)cc1OC
[11]
  selectivity ratio: 9
[12]
  EC50: 0.42 µM

## COc1cc([C@@H]2c3cc4c(cc3[C@H](O)[C@H]3COC(=O)[C@H]23)OCO4)cc(OC)c1OC [PODOFILOX]
[1]
  IC50: 0.1 µM
Human alphaherpesvirus 1 [3]
  Activity: 0.024 µM
Sindbis virus [14]
  inhibition at 0.241 µM: 3%
Human alphaherpesvirus 1 [2]
  IC50: 0.05 µM
Murid betaherpesvirus 1 [15]
  inhibition at 0.241 µM: 74%
[4]
  selectivity ratio: 6000
[5]
  Activity: 140 µM

## COc1cc([C@@H]2c3cc4c(cc3C=C3COC(=O)[C@H]32)OCO4)cc(OC)c1OC
[1]
  IC50: 0.25 µM
Human alphaherpesvirus 1 [2]
  IC50: 0.25 µM

## COc1cc([C@@H]2c3cc4c(cc3[C@H](OC)[C@H]3COC(=O)[C@H]23)OCO4)cc(OC)c1OC
[1]
  IC50: 0.93 µM
Human alphaherpesvirus 1 [2]
  IC50: 0.46 µM

## COc1cc(C[C@@]2(O)C(=O)OC[C@@H]2Cc2ccc(OC)c(OC)c2)ccc1O
[9]
  Activity: 60%
[10]
  Activity: 60%

## COc1cc2c(OC)c3c(c(-c4ccc5c(c4)OCO5)c2cc1OC)C(=O)OC3 [JUSTICIDIN A]
[16]
  Activity: 166 µM
[17]
  MIC: 0.65 µM (≈ 0.256 µg/mL)

## COc1cc([C@@H]2c3cc4c(c(O)c3C[C@H]3COC(=O)[C@@H]32)OCO4)cc(OC)c1OC [BETA-PELTATIN A]
Human alphaherpesvirus 1 [3]
  Activity: 0.36 µM
[4]
  selectivity ratio: 333
[5]
  Activity: 120 µM

## COc1cc([C@@H]2c3cc4c(c(O[C@@H]5O[C@H](CO)[C@@H](O)[C@H](O)[C@H]5O)c3C[C@H]3COC(=O)[C@@H]32)OCO4)cc(OC)c1OC
Human alphaherpesvirus 1 [3]
  Activity: 17 µM
[4]
  selectivity ratio: 3
[5]
  Activity: 52 µM

## COc1cc([C@@H]2c3cc4c(cc3[C@@H](O)[C@H]3COC(=O)[C@H]23)OCO4)cc(OC)c1OC [EPIPODOPHYLLOTOXIN]
Human alphaherpesvirus 1 [3]
  Activity: 1.6 µM
[4]
  selectivity ratio: 15
[5]
  Activity: 24 µM

## COc1cc([C@@H]2c3cc4c(c(O)c3C[C@H]3COC(=O)[C@@H]32)OCO4)cc(OC)c1O
Human alphaherpesvirus 1 [3]
  Activity: 0.05 µM
Sindbis virus [18]
  inhibition at 0.25 µM: 6%
Murid betaherpesvirus 1 [19]
  inhibition at 0.25 µM: 85%
[4]
  selectivity ratio: 4000
[5]
  Activity: 200 µM

## COc1cc([C@@H]2c3cc4c(cc3C[C@H]3CSC(=O)[C@@H]32)OCO4)cc(OC)c1OC [DEOXYPODOPHYLLOTOXIN CYCLIC SULFIDE]
Human alphaherpesvirus 1 [3]
  Activity: 12 µM
[4]
  selectivity ratio: 3
[5]
  Activity: 37 µM

## COc1cc([C@@H]2c3cc4c(cc3[C@@H](O)[C@H]3COC(=O)[C@H]23)OCO4)cc(OC)c1O [4'-DEMETHYLEPIPODOPHYLLOTOXIN]
Human alphaherpesvirus 1 [3]
  Activity: 13 µM
[4]
  selectivity ratio: 1
[5]
  Activity: 13 µM

## COc1cc([C@@H]2c3cc4c(cc3[C@H](O)[C@H]3COC(=O)[C@@H]23)OCO4)cc(OC)c1OC [AXL-1717]
Human alphaherpesvirus 1 [3]
  Activity: 1.9 µM
[4]
  selectivity ratio: 75
[5]
  Activity: 140 µM

## COc1c2c(cc3c1-c1c(cc4c(c1OC)OCO4)C[C@H](C)[C@H](C)C3)OCO2 [SCHISANDRIN C]
[13]
  IC50: 3.1 µM

## COc1cc2c(c(OC)c1OC)-c1c(cc3c(c1OC)OCO3)[C@H](OC(=O)c1ccccc1)[C@@](C)(O)[C@@H](C)C2 [GOMISIN G]
[13]
  IC50: 0.011 µM

## COc1cc([C@@H]2c3cc4c(cc3[C@@H](OC(C)=O)[C@H]3CSC(=O)[C@H]23)OCO4)cc(OC)c1OC [EPIPODOPHYLLOTOXIN ACETATE]
[1]
  IC50: 0.22 µM
Human alphaherpesvirus 1 [2]
  IC50: 0.44 µM

## COc1cc2c(O)c3c(c(-c4ccc5c(c4)OCO5)c2cc1OC)C(=O)OC3 [DIPHYLLIN]
[16]
  Activity: 85 µM
Murid betaherpesvirus 1 [20]
  inhibition at 0.263 µM: 11%
[17]
  MIC: 0.16 µM (≈ 0.0609 µg/mL)
Sindbis virus [21]
  inhibition at 0.273 µM: 18%

## COc1cc([C@@H]2c3cc4c(cc3[C@@H](OC)[C@H]3COC(=O)[C@@H]23)OCO4)cc(OC)c1OC
[1]
  IC50: 2.3 µM
Human alphaherpesvirus 1 [2]
  IC50: 0.9 µM

## COc1cc([C@@H]2c3cc4c(cc3C[C@H]3COC(=O)[C@H]32)OCO4)cc(OC)c1OC [DEOXYPICROPODOPHYLLIN]
[1]
  IC50: 2 µM
Human alphaherpesvirus 1 [2]
  IC50: 2 µM

## COc1cc([C@@H]2c3cc4c(cc3[C@H](O)[C@H]3COC[C@H]23)OCO4)cc(OC)c1OC [ANHYDROPODOPHYLLOL]
Human alphaherpesvirus 1 [3]
  Activity: 0.25 µM
[4]
  selectivity ratio: 800
[5]
  Activity: >200 µM

## COc1cc([C@@H]2c3cc4c(cc3[C@H](O)[C@H]3COC(=O)[C@H]23)OCO4)cc(OC)c1O
[1]
  IC50: 0.25 µM
Human alphaherpesvirus 1 [3]
  Activity: 0.5 µM
Human alphaherpesvirus 1 [2]
  IC50: 0.1 µM
[4]
  selectivity ratio: 250
[5]
  Activity: >125 µM

## COc1c2c(cc3c1[C@H](c1ccc(OC(=O)c4ccccc4)c(O)c1)[C@H]1C(=O)OC[C@@H]1C3)OCO2
[6]
  EC50: 5.22 µM
MT4
  CC50: > 840 µM

## COc1cc([C@H]2c3c(cc(OC)c(OC)c3OC)C[C@H]3CSC[C@@H]32)cc(OC)c1OC
[6]
  EC50: 0.8 µM
MT4
  CC50: 58 µM

## COc1c(O)c(Cl)c2c(c1OC)-c1c(c(Cl)c(O)c(OC)c1OC)C[C@H](C)[C@H](C)C2
[8]
  EC50: 0.1 µM

## COc1cc([C@H]2c3c(cc4c(c3OC)OCO4)C[C@H]3CSC[C@@H]32)cc(OC)c1OC
[6]
  EC50: 5.1 µM
MT4
  CC50: 163 µM

## COc1cc([C@@H]2c3cc4c(cc3C[C@H]3COC(=O)[C@@H]32)OCO4)cc(OC)c1OC [DESOXYPODOPHYLLOTOXIN]
[1]
  IC50: < 0.025 µM
Human alphaherpesvirus 1 [3]
  Activity: 0.038 µM
Human alphaherpesvirus 1 [2]
  IC50: 0.025 µM
[4]
  selectivity ratio: 667
[5]
  Activity: >25 µM

Reference: ChEMBL document CHEMBL1151291, “Antiviral activity of lignans” (J Nat Prod, 1998)
